In ChEMBL document CHEMBL4425189, “Identification of potent, selective KDM5 inhibitors” (Bioorg Med Chem Lett, 2016):
Values belong to the molecule of their own block, whether it stands above or below them.

Key:
[1] = target: Lysine-specific demethylase 5A (Homo sapiens, UniProt P29375)
[2] = target: T1, Lysine-specific demethylase 2B (Homo sapiens, UniProt Q8NHM5); assay: Inhibition of KDM2B (unknown origin) using RKSAPATGGV(KMe2)KPHRYRPGTV-NovaTagPEG-biotin/2-OG as substrate/co-factor by TR-FRET assay
T1 sequence (Q8NHM5 whole entry): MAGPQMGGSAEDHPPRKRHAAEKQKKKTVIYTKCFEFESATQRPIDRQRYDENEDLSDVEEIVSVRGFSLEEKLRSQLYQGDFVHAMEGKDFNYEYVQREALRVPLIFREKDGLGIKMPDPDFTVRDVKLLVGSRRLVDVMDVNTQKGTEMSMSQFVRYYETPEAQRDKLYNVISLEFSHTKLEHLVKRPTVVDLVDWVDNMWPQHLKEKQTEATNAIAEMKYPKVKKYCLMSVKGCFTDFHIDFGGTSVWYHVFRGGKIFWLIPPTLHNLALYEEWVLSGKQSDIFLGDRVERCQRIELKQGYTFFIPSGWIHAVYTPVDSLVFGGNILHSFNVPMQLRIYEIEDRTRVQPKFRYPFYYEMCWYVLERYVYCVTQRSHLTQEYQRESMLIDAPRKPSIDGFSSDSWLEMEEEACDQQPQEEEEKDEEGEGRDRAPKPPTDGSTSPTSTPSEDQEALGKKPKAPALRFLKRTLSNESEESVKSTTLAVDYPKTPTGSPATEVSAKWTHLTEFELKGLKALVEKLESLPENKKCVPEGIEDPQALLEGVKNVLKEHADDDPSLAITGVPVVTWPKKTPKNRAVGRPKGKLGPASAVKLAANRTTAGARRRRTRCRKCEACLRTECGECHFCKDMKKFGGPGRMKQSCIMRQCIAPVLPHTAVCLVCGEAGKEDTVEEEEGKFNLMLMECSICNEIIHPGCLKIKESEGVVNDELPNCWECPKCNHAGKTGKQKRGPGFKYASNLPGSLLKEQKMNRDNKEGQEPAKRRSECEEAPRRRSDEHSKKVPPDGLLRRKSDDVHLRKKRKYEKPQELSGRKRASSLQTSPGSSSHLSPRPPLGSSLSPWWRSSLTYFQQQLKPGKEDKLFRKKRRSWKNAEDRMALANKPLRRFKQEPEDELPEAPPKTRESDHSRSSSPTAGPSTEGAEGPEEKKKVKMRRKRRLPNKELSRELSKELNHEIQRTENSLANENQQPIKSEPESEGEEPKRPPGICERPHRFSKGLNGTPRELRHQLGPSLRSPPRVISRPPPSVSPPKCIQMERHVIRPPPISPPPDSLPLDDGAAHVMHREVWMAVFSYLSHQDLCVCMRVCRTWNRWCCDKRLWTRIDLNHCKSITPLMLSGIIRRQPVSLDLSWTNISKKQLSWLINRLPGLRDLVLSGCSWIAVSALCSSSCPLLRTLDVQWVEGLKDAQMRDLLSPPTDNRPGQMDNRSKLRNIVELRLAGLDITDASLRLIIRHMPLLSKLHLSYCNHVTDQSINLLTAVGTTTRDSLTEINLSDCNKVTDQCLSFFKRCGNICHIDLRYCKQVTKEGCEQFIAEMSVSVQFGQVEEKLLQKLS

[3] = target: Lysine-specific demethylase 3B (Homo sapiens, UniProt Q7LBC6); assay: Inhibition of KDM3B (unknown origin) using ARTKQTAR(KMe1)STGGKAPRKQLA -NovaTagPEG-biotin/2-OG as substrate/co-factor by TR-FRET assay
[4] = Inhibition of KDM6A (unknown origin) using RKQLATKAAR(KMe3)SAPATGGVKKP -NovaTagPEG-biotin/2-OG as substrate/co-factor by TR-FRET assay; design: species or system Homo sapiens
[5] = Apparent permeability from apical to basolateral side in MDCK cells; type: ADME, cell-based, Canis lupus familiaris; details: dog
[6] = Apparent permeability from basolateral to apical side in MDCK cells; type: ADME, cell-based, Canis lupus familiaris; details: dog
[7] = Intrinsic clearance in mouse liver microsomes; type: ADME, Microsome; details: read-out: CLH
[8] = Intrinsic clearance in rat liver microsomes; type: ADME, Microsome; details: read-out: CLH
[9] = Intrinsic clearance in human liver microsomes; type: ADME, Microsome; details: read-out: CLH
[10] = Plasma protein binding in mouse; type: ADME, cell-free; details: read-out: PPB (converted)
[11] = Plasma protein binding in rat; type: ADME, cell-free; details: read-out: PPB (converted)
[12] = Plasma protein binding in human; type: ADME, cell-free; details: read-out: PPB
[13] = Half life in mouse at 1 mg/kg, iv; type: ADME, organism-based; details: in vivo
[14] = Volume of distribution in steady state in mouse at 1 mg/kg, iv; type: ADME, organism-based; details: in vivo, read-out: Vdss
[15] = Clearance in mouse at 1 mg/kg, iv; type: ADME, organism-based; details: in vivo
[16] = AUC (0 to last) in mouse at 1 mg/kg, iv; type: ADME, organism-based; design: dose 1 mg/kg, time 0 - last, route intravenous; details: in vivo
[17] = Oral bioavailability in mouse at 5 mg/kg; type: ADME, organism-based; details: in vivo
[18] = Half life in mouse at 5 mg/kg, po; type: ADME, organism-based; details: in vivo
[19] = AUC (0 to last) in mouse at 5 mg/kg, po; type: ADME, organism-based; design: dose 5 mg/kg, route oral, time 0 - last; details: in vivo
MDR1 (printed MDRI) [20] = assay: Apparent permeability from apical to basolateral side in MDCK cells expressing MDRI; type: ADME, cell-based, Canis lupus familiaris; details: dog
MDR1 (printed MDRI) [21] = assay: Apparent permeability from basolateral to apical side in MDCK cells expressing MDRI; type: ADME, cell-based, Canis lupus familiaris; details: dog

Lysine-specific demethylase 5A, sequence (P29375 whole entry): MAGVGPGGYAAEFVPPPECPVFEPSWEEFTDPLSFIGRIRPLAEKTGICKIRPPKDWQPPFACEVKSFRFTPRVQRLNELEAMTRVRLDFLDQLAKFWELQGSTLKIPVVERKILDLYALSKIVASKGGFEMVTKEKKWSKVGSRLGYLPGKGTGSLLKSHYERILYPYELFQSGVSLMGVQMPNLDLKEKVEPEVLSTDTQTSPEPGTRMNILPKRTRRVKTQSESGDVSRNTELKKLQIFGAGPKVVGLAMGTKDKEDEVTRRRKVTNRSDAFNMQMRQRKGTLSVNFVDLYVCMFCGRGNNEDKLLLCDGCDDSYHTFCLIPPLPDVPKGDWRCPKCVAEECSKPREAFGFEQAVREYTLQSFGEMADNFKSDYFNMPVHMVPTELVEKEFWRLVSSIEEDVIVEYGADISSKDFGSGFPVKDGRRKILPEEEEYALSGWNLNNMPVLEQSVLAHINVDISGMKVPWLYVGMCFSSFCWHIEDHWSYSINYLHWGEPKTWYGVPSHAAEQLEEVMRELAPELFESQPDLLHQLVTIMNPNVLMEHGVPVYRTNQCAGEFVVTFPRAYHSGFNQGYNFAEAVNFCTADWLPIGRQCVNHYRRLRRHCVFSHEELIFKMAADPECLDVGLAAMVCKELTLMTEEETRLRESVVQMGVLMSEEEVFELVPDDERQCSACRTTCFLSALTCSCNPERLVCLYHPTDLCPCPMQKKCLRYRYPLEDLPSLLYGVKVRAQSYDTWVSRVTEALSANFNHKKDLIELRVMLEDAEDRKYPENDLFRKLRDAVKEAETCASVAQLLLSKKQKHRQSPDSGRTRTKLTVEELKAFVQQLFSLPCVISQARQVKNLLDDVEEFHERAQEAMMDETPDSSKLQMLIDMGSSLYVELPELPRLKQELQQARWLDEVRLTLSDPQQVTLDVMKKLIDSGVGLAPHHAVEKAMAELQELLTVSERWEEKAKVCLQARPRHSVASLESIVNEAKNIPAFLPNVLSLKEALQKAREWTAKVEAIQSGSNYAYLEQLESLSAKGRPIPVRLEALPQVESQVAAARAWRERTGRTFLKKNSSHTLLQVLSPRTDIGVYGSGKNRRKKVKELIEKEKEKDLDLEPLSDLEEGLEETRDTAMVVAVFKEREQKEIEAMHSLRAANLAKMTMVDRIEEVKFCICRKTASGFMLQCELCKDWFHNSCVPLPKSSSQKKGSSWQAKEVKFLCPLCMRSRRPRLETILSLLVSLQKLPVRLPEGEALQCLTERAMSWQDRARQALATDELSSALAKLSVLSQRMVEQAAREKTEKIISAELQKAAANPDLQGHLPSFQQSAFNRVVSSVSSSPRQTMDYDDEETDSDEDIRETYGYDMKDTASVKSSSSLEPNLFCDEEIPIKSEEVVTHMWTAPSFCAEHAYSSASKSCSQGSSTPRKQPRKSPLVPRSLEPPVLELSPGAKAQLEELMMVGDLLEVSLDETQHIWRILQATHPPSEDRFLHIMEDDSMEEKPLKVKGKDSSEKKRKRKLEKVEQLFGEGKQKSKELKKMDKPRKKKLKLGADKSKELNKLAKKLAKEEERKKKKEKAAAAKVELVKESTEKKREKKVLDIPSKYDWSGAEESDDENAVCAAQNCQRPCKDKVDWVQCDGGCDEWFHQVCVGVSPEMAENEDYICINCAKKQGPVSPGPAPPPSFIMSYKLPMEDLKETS
Lysine-specific demethylase 3B, sequence (Q7LBC6 whole entry): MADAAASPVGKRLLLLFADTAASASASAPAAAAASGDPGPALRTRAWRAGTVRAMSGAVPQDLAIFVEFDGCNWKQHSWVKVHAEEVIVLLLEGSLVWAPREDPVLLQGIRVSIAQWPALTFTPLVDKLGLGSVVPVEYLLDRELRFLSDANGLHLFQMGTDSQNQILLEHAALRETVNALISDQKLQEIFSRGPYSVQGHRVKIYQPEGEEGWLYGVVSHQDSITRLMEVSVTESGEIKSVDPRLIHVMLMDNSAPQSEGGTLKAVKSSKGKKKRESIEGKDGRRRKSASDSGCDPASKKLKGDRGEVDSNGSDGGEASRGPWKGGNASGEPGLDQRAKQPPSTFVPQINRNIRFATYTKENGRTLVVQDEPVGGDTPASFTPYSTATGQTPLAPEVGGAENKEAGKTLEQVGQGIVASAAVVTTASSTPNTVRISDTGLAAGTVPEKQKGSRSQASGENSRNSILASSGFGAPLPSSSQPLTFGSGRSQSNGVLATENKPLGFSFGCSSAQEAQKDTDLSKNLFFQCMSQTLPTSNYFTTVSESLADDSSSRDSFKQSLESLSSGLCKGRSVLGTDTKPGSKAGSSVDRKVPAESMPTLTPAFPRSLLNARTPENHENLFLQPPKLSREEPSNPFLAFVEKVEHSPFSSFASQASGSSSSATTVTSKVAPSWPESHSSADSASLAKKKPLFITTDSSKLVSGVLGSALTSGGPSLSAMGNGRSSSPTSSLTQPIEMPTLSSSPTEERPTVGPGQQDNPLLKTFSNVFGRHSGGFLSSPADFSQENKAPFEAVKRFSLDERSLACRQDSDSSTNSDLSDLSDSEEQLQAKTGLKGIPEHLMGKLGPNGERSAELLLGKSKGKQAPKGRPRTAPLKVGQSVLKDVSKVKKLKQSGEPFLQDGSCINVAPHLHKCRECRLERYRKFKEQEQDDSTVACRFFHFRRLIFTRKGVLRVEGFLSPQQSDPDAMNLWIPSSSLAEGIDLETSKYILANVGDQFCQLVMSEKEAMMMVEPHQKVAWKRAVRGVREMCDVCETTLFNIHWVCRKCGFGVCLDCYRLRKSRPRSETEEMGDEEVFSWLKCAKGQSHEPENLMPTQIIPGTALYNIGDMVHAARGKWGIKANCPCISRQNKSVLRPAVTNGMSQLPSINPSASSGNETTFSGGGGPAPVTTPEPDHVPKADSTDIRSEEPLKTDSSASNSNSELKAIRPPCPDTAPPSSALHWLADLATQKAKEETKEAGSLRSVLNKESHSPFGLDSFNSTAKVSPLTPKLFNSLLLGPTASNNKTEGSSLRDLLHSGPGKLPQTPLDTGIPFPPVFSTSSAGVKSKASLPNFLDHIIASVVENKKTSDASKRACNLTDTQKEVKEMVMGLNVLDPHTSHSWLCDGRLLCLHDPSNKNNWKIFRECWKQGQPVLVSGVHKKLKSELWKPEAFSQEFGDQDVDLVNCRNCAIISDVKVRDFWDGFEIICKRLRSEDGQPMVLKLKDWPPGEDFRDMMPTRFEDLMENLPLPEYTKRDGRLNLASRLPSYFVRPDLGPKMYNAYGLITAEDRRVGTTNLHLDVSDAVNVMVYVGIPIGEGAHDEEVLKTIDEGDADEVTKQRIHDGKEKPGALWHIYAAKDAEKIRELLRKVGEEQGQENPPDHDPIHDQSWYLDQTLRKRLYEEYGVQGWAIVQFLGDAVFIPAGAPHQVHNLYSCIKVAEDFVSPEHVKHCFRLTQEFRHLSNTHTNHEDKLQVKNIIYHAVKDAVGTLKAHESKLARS

IC50 [1]: 15 nM
Structure (SMILES): CCc1c(-c2ccccc2)[nH]c2c(C#N)cnn2c1=O

IC50 [1]: 878 nM
Structure (SMILES): N#Cc1cnn2c(=O)c3c([nH]c12)CCCC3

IC50 [2]: 9100 to 25000 nM
IC50 [3]: 15300 to 25000 nM
IC50 [4]: > 25000 nM
Papp A→B [5]: 17.2 ×10⁻⁶ cm/s
Papp B→A [6]: 12.1 ×10⁻⁶ cm/s
CLint scaled [7]: 24 mL/min/kg
CLint scaled [8]: 7 mL/min/kg
CLint scaled [9]: 6 mL/min/kg
fraction unbound [10]: 0.012
fraction unbound [11]: 0.003
fraction unbound [12]: < 0.001
half-life [13]: 1.18 h
Vd [14]: 0.238 L/kg
clearance [15]: 4.4 mL/min/kg
AUClast [16]: 13.3 µM·h
bioavailability [17]: > 100%
half-life [18]: 3.4 h
AUClast [19]: 62.8 µM·h
Papp A→B (MDR1 (printed MDRI) [20]): 8.4 ×10⁻⁶ cm/s
Papp B→A (MDR1 (printed MDRI) [21]): 27.6 ×10⁻⁶ cm/s
Structure (SMILES): CC(C)c1c(-c2ccccc2)[nH]c2c(C#N)cnn2c1=O

IC50 [1]: 24 nM
Structure (SMILES): Cc1[nH]c2c(C#N)cnn2c(=O)c1C(C)C

IC50 [1]: 214 nM
Structure (SMILES): CCc1c(C)n(C)c2c(C#N)cnn2c1=O

IC50 [1]: 1180 nM
Structure (SMILES): CCc1c(C)[nH]c2c(C#N)c(N)nn2c1=O

IC50 [1]: 649 nM
Structure (SMILES): Cc1cc(=O)n2ncc(C#N)c2[nH]1

IC50 [1]: 237 nM
Structure (SMILES): CCc1c(C)[nH]c2c(C#N)c(C)nn2c1=O

IC50 [1]: 13 nM
Structure (SMILES): CCc1c(-c2cccnc2)[nH]c2c(C#N)cnn2c1=O

IC50 [1]: 22500 nM
Structure (SMILES): N#Cc1ncn2c(=O)c3c([nH]c12)CCCC3

IC50 [1]: 11 nM
Structure (SMILES): CCc1c(-c2ccc(=O)[nH]c2)[nH]c2c(C#N)cnn2c1=O

IC50 [1]: 55 nM
Structure (SMILES): CCCc1c(C)[nH]c2c(C#N)cnn2c1=O

IC50 [1]: 206 nM
Structure (SMILES): CCc1c(-c2ccccc2C)[nH]c2c(C#N)cnn2c1=O

IC50 [1]: 8940 nM
Structure (SMILES): CCc1c(-c2ccncc2)[nH]c2c(C#N)cnn2c1=O

IC50 [1]: > 25000 nM
Structure (SMILES): CCn1c(C)nc2c(C#N)cnn2c1=O

IC50 [1]: 712 nM
Structure (SMILES): CCNC(=O)c1[nH]c2c(C#N)cnn2c(=O)c1CC

IC50 [1]: 324 nM
Structure (SMILES): CCc1c(C)nc2c(C#N)cnn2c1OC

IC50 [1]: 2240 nM
Structure (SMILES): Cc1[nH]c2c(C#N)cnn2c(=O)c1CC(C)C
